Measurements: PubChem BioAssay (NCI)
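A five-concentration, 48-hour dose response in 96-well plates underlies each endpoint, interpolated linearly between surrounding concentrations. TGI marks complete inhibition of growth.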

Assays:
Assay in all cases: DTP human tumour cell line panel, 48 h
COLO 205 colon = tested on: COLO 205 colon
OVCAR-5 ovarian = tested on: OVCAR-5 ovarian
SK-MEL-28 melanoma = tested on: SK-MEL-28 melanoma
HOP-62 NSCLC = tested on: HOP-62 NSCLC
OVCAR-3 ovarian = tested on: OVCAR-3 ovarian
CAKI-1 renal = tested on: CAKI-1 renal
HT29 colon = tested on: HT29 colon
HL-60(TB) leukemia = tested on: HL-60(TB) leukemia
RPMI-8226 leukemia = tested on: RPMI-8226 leukemia

Row | SMILES | TGI (COLO 205 colon) | TGI (OVCAR-5 ovarian) | TGI (SK-MEL-28 melanoma) | TGI (HOP-62 NSCLC) | TGI (OVCAR-3 ovarian) | TGI (CAKI-1 renal) | TGI (HT29 colon) | TGI (HL-60(TB) leukemia) | TGI (RPMI-8226 leukemia)
1 | N#Cc1nc(-c2cccc(-c3nc(C#N)c(N)o3)n2)oc1N | > 100 µM | > 100 µM | > 100 µM | > 100 µM | > 100 µM | > 100 µM | > 100 µM | > 100 µM | > 100 µM
2 | CC(NC(=O)C(Cc1ccc(OC(=O)c2ccccc2)cc1)NC(=O)OC(C)(C)C)C(=O)NCC(=O)NC(Cc1ccccc1)C(=O)NN (configuration not stated) | 53.2 µM | > 100 µM | > 100 µM | > 100 µM | > 100 µM | > 100 µM | > 100 µM | 41.5 µM | 38.1 µM
3 | Cc1ccc(S[C@@H](C)[C@@](O)(C(N)=O)c2ccccc2)cc1 | > 100 µM | > 100 µM | > 100 µM | 62.6 µM | > 100 µM | 30.7 µM | > 100 µM | > 100 µM | 74.8 µM
4 | CCOC(=O)C1=C(C)N(Cc2ccccc2)C2(O)C=CC(=O)C3=C(O)c4ccccc4C(=O)C312 (configuration not stated) | 30.4 µM | 31.7 µM | > 100 µM | 31.8 µM | 20.2 µM | 37.2 µM | > 100 µM | 42.1 µM | 31.2 µM
5 | O=C(N/N=C\c1ccc([N+](=O)[O-])s1)c1ccncc1 | 9.22 µM | > 66.9 µM | > 64.9 µM | 35.3 µM | 8.06 µM | 49.2 µM | 15.9 µM | > 22.7 µM | > 41.3 µM
6 | NS(=O)(=O)c1ccc(N=Nc2ccc(O)c(C(=O)O)c2)cc1 | > 100 µM | > 100 µM | > 100 µM | > 100 µM | > 100 µM | > 100 µM | > 100 µM | > 100 µM | > 100 µM
7 | CCOC(=O)CCC(NC(=O)c1ccc(Nc2nc3ccccc3nc2C(=O)OCC)cc1)C(=O)OCC (configuration not stated) | > 100 µM | > 56.4 µM | > 100 µM | 12.4 µM | 4.73 µM | 14.4 µM | > 89.7 µM | > 100 µM | > 100 µM
8 | CC/C(N)=N\NC(=O)OC(C)(C)C | > 100 µM | > 100 µM | > 100 µM | > 100 µM | > 100 µM | > 100 µM | > 100 µM | > 100 µM | > 100 µM
9 | CN1CCN([C@H]2C[C@H]3[C@@H]4CC=C5C[C@@H](O)CC[C@]5(C)[C@H]4CC[C@]3(C)[C@H]2O)CC1 | > 100 µM | > 82.8 µM | > 57.3 µM | > 100 µM | > 57.8 µM | > 100 µM | 28.6 µM | 39.7 µM | 50.6 µM
10 | O=S(=O)(O)c1cc(S(=O)(=O)O)c2c(N=Nc3ccc(N=Nc4ccccc4)cc3)c(O)ccc2c1 | > 100 µM | > 100 µM | > 100 µM | > 100 µM | > 100 µM | > 100 µM | > 100 µM | > 100 µM | > 100 µM
11 | CC1(C)CC(=O)C2=C(C1)OC1(CC2c2ccc(Cl)cc2)CC(c2ccc(Cl)cc2)C2=C(CC(C)(C)CC2=O)O1 (configuration not stated) | 36.6 µM | > 79.1 µM | 34 µM | 34.2 µM | 23.5 µM | 52.3 µM | > 100 µM | 24.1 µM | 28.5 µM
12 | O=P(O)(O)CN1CCNCCN(CP(=O)(O)O)CC1 | 18.7 µM | > 100 µM | > 100 µM | > 100 µM | > 100 µM | > 100 µM | > 100 µM | 18.2 µM | > 100 µM
13 | CC(=O)c1sc2[n+](c1C)C(=O)/C(=C\c1ccccc1Cl)S2 | 28 µM | 50.1 µM | 31.1 µM | 47.7 µM | 35.8 µM | 41 µM | 39.2 µM | 39 µM | 49.3 µM
14 | O=C1C=C(N2CCN(CCOCCO)CC2)C(=O)c2c(O)ccc(O)c21 | 2.86 µM | 12.8 µM | 32.7 µM | 32.7 µM | 5.35 µM | 29.3 µM | 15.5 µM | > 29.2 µM | > 100 µM
15 | COc1ccc(CNc2nc3ccccc3nc2C(=O)O)cc1 | > 100 µM | > 100 µM | > 100 µM | > 100 µM | > 100 µM | > 100 µM | > 100 µM | > 100 µM | 68.2 µM
16 | CC(C)c1ccc(/C=C2\CSCC3=C2N=C2SCC(=O)N2C3c2ccc(C(C)C)cc2)cc1 (configuration not stated) | > 100 µM | > 100 µM | > 100 µM | > 100 µM | > 100 µM | > 100 µM | > 100 µM | > 100 µM | > 100 µM
17 | NN/C(=N\S(=O)(=O)c1ccc(S(=O)(=O)c2ccccc2)s1)Nc1ccc(Cl)cc1 | 46.2 µM | > 100 µM | > 100 µM | > 100 µM | 72.2 µM | > 100 µM | 65.4 µM | 62.2 µM | > 100 µM
18 | O=S(=O)(O)c1ccc2c(N=Nc3ccc(Sc4ccc(N=Nc5c(O)ccc6cc(S(=O)(=O)O)ccc56)cc4)cc3)c(O)ccc2c1 | > 100 µM | > 100 µM | > 100 µM | > 100 µM | > 100 µM | > 100 µM | > 100 µM | > 100 µM | > 100 µM
